Data as given in ChEMBL document CHEMBL1201862, “PubChem BioAssay data set” (2004).
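Dose response: 5 concentrations. Exposure: 48 h. Format: 96-well plates. Endpoint: linear interpolation; highest concentration if not reached. Here, GI50 denotes the concentration required for 50% inhibition of growth.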 The source made the active and inactive calls. No stated cut-off is given here; in the data, active = GI50 up to about 1.1 µM and inactive = higher.

Columns and labels:
Assay in all cases: growth of human tumour cells (NCI), 48 h
[1] = test system: SN12C
[2] = test system: CCRF-CEM
[3] = test system: MOLT-4
[4] = test system: Hs-578T
[5] = test system: UACC-62
[6] = test system: SNB-75
[7] = test system: SNB-19
[8] = test system: HT-29
[9] = test system: A498
[10] = test system: A549
[11] = test system: NCI-H522
[12] = test system: HCT-15
[13] = test system: RXF 393
[14] = test system: UO-31
[15] = test system: MDA-N
[16] = test system: DU-145
[17] = test system: NCI-H23
[18] = test system: 786-0
[19] = test system: SW-620
[20] = test system: NCI-H226

Compound	GI50 [1]	GI50 [2]	GI50 [3]	GI50 [4]	GI50 [5]	GI50 [6]	GI50 [7]	GI50 [8]	GI50 [9]	GI50 [10]	GI50 [11]	GI50 [12] [µM]	GI50 [13]	GI50 [14]	GI50 [15]	GI50 [16]	GI50 [17]	GI50 [18]	GI50 [19]	GI50 [20]
C=CC(C)CCC(C/C=C(\C)CCC=C(C)C)C(=C)CCCC(C)C (configuration not stated)	> 100 µM (inactive)	> 100 µM (inactive)	> 100 µM (inactive)	> 100 µM (inactive)	> 100 µM (inactive)	> 100 µM (inactive)	> 100 µM (inactive)	> 100 µM (inactive)	> 100 µM (inactive)	> 100 µM (inactive)	> 100 µM (inactive)	> 100	> 100 µM (inactive)	> 100 µM (inactive)	> 100 µM (inactive)	> 100 µM (inactive)	> 100 µM (inactive)	> 100 µM (inactive)	> 100 µM (inactive)	–
COc1ccc(-c2ccc(C(=O)C=P(c3ccccc3)(c3ccccc3)c3ccccc3)cc2)cc1	14.9 µM (inactive)	5.52 µM (inactive)	4.59 µM (inactive)	23 µM (inactive)	15.2 µM (inactive)	–	25.6 µM (inactive)	6.05 µM (inactive)	12.2 µM (inactive)	6.95 µM (inactive)	–	8.59	13.2 µM (inactive)	3.13 µM (inactive)	13.2 µM (inactive)	14.5 µM (inactive)	18.8 µM (inactive)	16.7 µM (inactive)	14.6 µM (inactive)	12.9 µM (inactive)
CN1C(=O)C(CC(=O)O)NC1=S (configuration not stated)	> 100 µM (inactive)	> 100 µM (inactive)	> 100 µM (inactive)	> 100 µM (inactive)	> 100 µM (inactive)	> 100 µM (inactive)	> 100 µM (inactive)	> 100 µM (inactive)	> 100 µM (inactive)	> 100 µM (inactive)	> 100 µM (inactive)	> 100	> 100 µM (inactive)	> 100 µM (inactive)	> 100 µM (inactive)	> 100 µM (inactive)	> 100 µM (inactive)	> 100 µM (inactive)	> 100 µM (inactive)	–
O=C1C(Cl)=C(Cl)C(Cl)(Cl)C(Cl)C1(Cl)Cl (configuration not stated)	20 µM (inactive)	27.3 µM (inactive)	–	21.3 µM (inactive)	16.7 µM (inactive)	21.5 µM (inactive)	22.4 µM (inactive)	24.5 µM (inactive)	15.2 µM (inactive)	20.9 µM (inactive)	13.7 µM (inactive)	29.6	20 µM (inactive)	15.8 µM (inactive)	23.7 µM (inactive)	27.4 µM (inactive)	21.9 µM (inactive)	37.8 µM (inactive)	22 µM (inactive)	–
CCn1c2c(c3c(C(=O)OC)c(O)ccc31)C(=O)c1ccccc1C2=O	11.9 µM (inactive)	15 µM (inactive)	12.1 µM (inactive)	10.1 µM (inactive)	–	4.36 µM (inactive)	22.3 µM (inactive)	19.3 µM (inactive)	–	13.9 µM (inactive)	5.9 µM (inactive)	7.85	16.1 µM (inactive)	4.57 µM (inactive)	11.9 µM (inactive)	11.1 µM (inactive)	18.3 µM (inactive)	12.2 µM (inactive)	15 µM (inactive)	9.18 µM (inactive)
